Data published in patent US20020028938A1, “Prostaglandin endoperoxide H synthase biosynthesis inhibitors” (priority 1997, published 2002).

Assays:
[1] = target: T1, recombinant human Cox-2 (r-hu Cox-2) (Homo sapiens, UniProt P35354); assay: Recombinant human PGHS-2 enzyme assay (RHUCX2); assay type: biochemical; settings: for IC50: read-out: RHUCX2 IC50 (parenthetical value)
T1 construct: made in house; host or cells: baculovirus/Sf9 insect cells (microsomes)
T1 sequence (P35354 18-604): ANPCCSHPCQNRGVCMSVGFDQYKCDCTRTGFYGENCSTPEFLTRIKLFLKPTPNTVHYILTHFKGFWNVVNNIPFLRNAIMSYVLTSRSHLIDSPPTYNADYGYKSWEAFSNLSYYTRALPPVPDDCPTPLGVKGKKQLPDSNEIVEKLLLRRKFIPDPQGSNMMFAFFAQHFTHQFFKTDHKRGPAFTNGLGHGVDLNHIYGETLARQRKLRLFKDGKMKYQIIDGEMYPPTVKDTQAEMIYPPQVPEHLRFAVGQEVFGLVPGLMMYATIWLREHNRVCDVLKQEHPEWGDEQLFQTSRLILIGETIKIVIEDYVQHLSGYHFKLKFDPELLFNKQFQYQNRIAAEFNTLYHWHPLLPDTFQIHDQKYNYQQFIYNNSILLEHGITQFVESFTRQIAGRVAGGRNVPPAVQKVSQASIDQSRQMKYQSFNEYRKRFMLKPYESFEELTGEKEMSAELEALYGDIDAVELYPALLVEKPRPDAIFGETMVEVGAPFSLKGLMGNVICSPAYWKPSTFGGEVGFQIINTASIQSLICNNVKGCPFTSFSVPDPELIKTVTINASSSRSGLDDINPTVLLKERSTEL
Method: (§1) To compare the mean responses of the treatment groups, analysis of variance was applied. Percent inhibition values were determined by comparing the individual treatment mean values to the mean of the control group. Linear regression was used to estimate IC50's/ED50's in appropriate assays.
(§2) EIA reagents for prostaglandin determination were purchased from Perseptive Diagnostics, (Cambridge, Mass.). Prostaglandin E2 (PGE2) levels in lavage fluids were determined after the samples were dried under nitrogen and reconstituted with assay buffer. PGE2 levels in enzyme assays or cell culture media were measured against standards prepared in the same milieu. The immunoassays were conducted as recommended by the manufacturer. The EIA was conducted in 96 well microtiter plates (Nunc Roskilde, Denmark) and optical density was measured using a microplate reader (Vmax, Molecular Devices Corp., Menlo Park, Calif.).
(§3) Inhibition of prostaglandin biosynthesis in vitro was evaluated using recombinant human Cox-1 (r-hu Cox1) and Cox-2 (r-hu Cox-2) enzyme assays. […] The reaction was allowed to run for 2.5 minutes at room temperature prior to quenching with HCl and neutralization with NaOH. PGE2 production in the presence and absence of the drug was determined by EIA analysis. The EIA was conducted in 96 well microtiter plates (Nunc Roskilde, Denmark) and optical density was measured using a microplate reader (Vmax, Molecular Devices Corp., Menlo Park, Calif.). EIA reagents for prostaglandin determination were purchased from Perseptive Diagnostics (Cambridge, Mass.). PGE2 levels were measured against standards prepared in the same milieu. The immunoassays were conducted as recommended by the manufacturer.

[2] = target: T2, recombinant human Cox-1 (r-hu Cox1) (Homo sapiens, UniProt P23219); assay: Recombinant human PGHS-1 enzyme assay (RHUCX1); assay type: biochemical
T2 construct: made in house; host or cells: baculovirus/Sf9 insect cells (microsomes)
Method: as §1, §2, §3

[3] = 100 μM, read-out: RHUCX1 % Inh. at Dose
[4] = 0.1 μM, read-out: RHUCX2 % Inh. at Dose
[5] = 1 μM, read-out: RHUCX2 % Inh. at Dose

T2 sequence (P23219 24-599): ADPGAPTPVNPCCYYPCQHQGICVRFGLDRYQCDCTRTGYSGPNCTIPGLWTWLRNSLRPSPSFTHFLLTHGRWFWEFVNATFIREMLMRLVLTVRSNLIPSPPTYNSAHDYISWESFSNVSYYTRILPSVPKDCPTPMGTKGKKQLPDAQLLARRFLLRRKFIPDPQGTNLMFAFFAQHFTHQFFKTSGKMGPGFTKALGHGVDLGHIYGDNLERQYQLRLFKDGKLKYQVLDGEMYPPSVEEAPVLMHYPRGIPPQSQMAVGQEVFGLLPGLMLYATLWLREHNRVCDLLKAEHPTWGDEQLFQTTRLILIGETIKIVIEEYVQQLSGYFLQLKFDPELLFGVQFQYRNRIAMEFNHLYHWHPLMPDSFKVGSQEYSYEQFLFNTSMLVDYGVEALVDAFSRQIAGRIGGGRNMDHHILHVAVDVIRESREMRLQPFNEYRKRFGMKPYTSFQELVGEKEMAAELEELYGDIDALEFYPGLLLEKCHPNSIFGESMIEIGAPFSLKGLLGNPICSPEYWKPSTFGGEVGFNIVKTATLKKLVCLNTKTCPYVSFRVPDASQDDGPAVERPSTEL

Molecule	RHUCX1 % Inh. at Dose (μM) ([2]; 100 μM)	RHUCX2 % Inh. at Dose (μM) ([1]; 0.1 μM)	RHUCX2 % Inh. at Dose (μM) ([1]; 1 μM)	also measured
2-(2,2,2-Trifluoroethyl)-4-(4-methoxyphenoxy)-5-[4-(methylsulfonyl)phenyl]-3(2H)-pyridazinone [Example 262]	15 @ 100%			IC50 [1]: 432 nM
2-(2-Hexyl)-4-(4-fluorophenyl)-5-[4-(methylsulfonyl)phenyl]-3(2H)-pyridazinone [Example 118]	31 @ 100%	72 @ 0.1%		RHUCX2 % Inh. at Dose (μM) ([1]; 0.01 μM): 17 @ 0.01%
2-(3-Chlorophenyl)-4-(cyclopentylmethyl)-5-[4-(methylsulfonyl)phenyl]-3(2H)-pyridazinone [Example 364]	0 @ 100%	0 @ 0.1%	86 @ 1%	
CS(=O)(=O)c1ccc(-c2cnn(CC#Cc3ccccc3)c(=O)c2-c2ccc(F)cc2)cc1 [Example 21, 2-(Phenylpropargyl)-4-(4-fluorophenyl)-5-[4-(methylsulfonyl)phenyl]-3(2H)-pyridazinone]	19 @ 100%			IC50 [1]: 920 nM
C=C(C)Cn1ncc(-c2ccc(S(C)(=O)=O)cc2)c(-c2ccc(F)cc2)c1=O [Example 23, 2-(Methyl-2-propenyl)-4-(4-fluorophenyl)-5-[4-(methylsulfonyl)phenyl]-3(2H)-pyridazinone]	0 @ 100%	68 @ 0.1%		RHUCX2 % Inh. at Dose (μM) ([1]; 0.01 μM): 27 @ 0.01%
CS(=O)(=O)c1ccc(-c2cnn(Cc3ccccc3)c(=S)c2-c2ccc(F)cc2)cc1 [Example 32, 2-Benzyl-4-(4-fluorophenyl)-5-[4-(methylsulfonyl)phenyl]-3(2H)-pridazinethione]	20 @ 100%	83 @ 0.1%	96 @ 1%	
CS(=O)(=O)c1ccc(-c2cnn(CC(=O)c3ccc(F)cc3F)c(=O)c2-c2ccc(F)cc2)cc1 [Example 41, 2-(2,4-Difluorophenacyl)-4-(4-fluorophenyl)-5-[4-(methylsulfonyl)phenyl]-3(2H)-pyrdazinone]	13 @ 100%	17 @ 0.1%	49 @ 1%	
CS(=O)(=O)c1ccc(-c2cnn(Cc3ccc(Cl)s3)c(=O)c2-c2ccc(F)cc2)cc1 [Example 42]	0 @ 100%	92 @ 0.1%	99 @ 1%	
C#CCn1ncc(-c2ccc(S(C)(=O)=O)cc2)c(-c2ccc(F)cc2)c1=O [Example 48, 2-(Propargyl)-4-(4-fluorophenyl)-5-[4-(methylsulfonyl)phenyl]-3(2H)-prridazinone]	0 @ 100%	2 @ 0.1%	73 @ 1%	
CS(=O)(=O)c1ccc(-c2cnn(Cc3ccsc3)c(=O)c2-c2ccc(F)cc2)cc1 [Example 60]	7 @ 100%			RHUCX2 % Inh. at Dose (μM) ([1]; 1,000 μM): 100 @ 1,000%
Cc1nn(CC(F)(F)F)c(=O)c(-c2ccc(F)cc2)c1-c1ccc(S(C)(=O)=O)cc1 [Example 64]		36 @ 0.1%	34 @ 1%	RHUCX1 % Inh. at Dose (μM) ([2]; 1 μM): 68 @ 1%
CS(=O)(=O)c1ccc(-c2cnn(CC(F)(F)F)c(=O)c2OC2CCCCC2)cc1 [Example 84]				RHUCX2 % Inh. at Dose (μM) ([1]; 0.3 μM): 87 @ 0.3%; RHUCX1 % Inh. at Dose (μM) ([2]; 1 μM): 9 @ 1%; RHUCX1 % Inh. at Dose (μM) ([2]; 10 μM): 49 @ 10%
CS(=O)(=O)c1ccc(-c2cnn(CC(F)=C(F)F)c(=O)c2-c2ccc(F)cc2)cc1 [Example 88]	0 @ 100%	35 @ 0.1%		RHUCX2 % Inh. at Dose (μM) ([1]; 1,000 μM): 97 @ 1,000%
CS(=O)(=O)c1ccc(-c2cnn(-c3csc4ccccc34)c(=O)c2-c2ccc(F)cc2)cc1 [Example 107]		36 @ 0.1%	86 @ 1%	RHUCX1 % Inh. at Dose (μM) ([2]; 1 μM): 50 @ 1%; RHUCX1 % Inh. at Dose (μM) ([2]; 10 μM): 88 @ 10%
CS(=O)(=O)c1ccc(-c2cnn(-c3cccc(Br)c3)c(=O)c2Oc2ccc(F)cc2)cc1 [Example 110]	5 @ 100%	50 @ 0.1%	93 @ 1%	
CC1CCC(n2ncc(-c3ccc(S(C)(=O)=O)cc3)c(-c3ccc(F)cc3)c2=O)C1 (stereo not drawn) [Example 133]	23 @ 100%			IC50 [1]: 358 nM
CS(=O)(=O)c1ccc(-c2cnn(-c3ccoc3)c(=O)c2-c2ccc(F)cc2)cc1 [Example 183, 2-(3-Furyl)-4-(4-fluorophenyl)-5-[4-(methylsulfonyl)phenyl]-3(2H)-pyrdazinone]	25 @ 100%	51 @ 0.1%	97 @ 1%	
CC(C)CCc1c(-c2ccc(S(C)(=O)=O)cc2)cnn(CC(F)(F)F)c1=O [Example 209]	0 @ 100%	55 @ 0.1%	79 @ 1%	RHUCX2 % Inh. at Dose (μM) ([1]; 0.01 μM): 40 @ 0.01%
CS(=O)(=O)c1ccc(-c2cnn(CC(F)(F)F)c(=O)c2-c2ccc(C(F)(F)F)cc2)cc1 [Example 213, 2-(2,2,2-Trifluoroethyl)-4-(4-trifluoromethylphenyl)-5-[4-(methylsulfonyl)phenyl]-3(2H)-pridazinone]				IC50 [1]: 812 nM; inhibition at 100 µM [2, 3]: 0%
Cc1ccc(-c2c(-c3ccc(S(C)(=O)=O)cc3)cnn(CC(F)(F)F)c2=O)cc1F [Example 219, 2-(2,2,2-Trifluoroethyl)-4-(3-fluoro-4-methylphenyl)-5-[4-(methylsulfonyl)phenyl]-3(2H)-pyridazinone]				inhibition at 0.1 µM [1, 4]: 75%; inhibition at 1 µM [1, 5]: 90%; inhibition at 100 µM [2, 3]: 20%
COc1c(F)cc(-c2c(-c3ccc(S(C)(=O)=O)cc3)cnn(CC(F)(F)F)c2=O)cc1F [Example 220, 2-(2,2,2-Trifluoroethyl)-4-(3,5-difluoro-4-methoxyphenyl)-5-[4-(methylsulfonyl)phenyl]-3(2H)-pyridazinone]				inhibition at 0.1 µM [1, 4]: 90%; inhibition at 1 µM [1, 5]: 96%; inhibition at 1 µM ([2]; 1 μM, read-out: RHUCX1 % Inh. at Dose): 38%; inhibition at 100 µM [2, 3]: 51%
CS(=O)(=O)c1ccc(-c2cnn(-c3ccc(F)cc3)c(=O)c2C#Cc2ccccc2)cc1 [Example 231, 2-(4-Fluorophenyl)-4-(pheylethynyl)-5-[4-(methylsulfonl)phenyl]-3(2H)-pyridazinone]	7 @ 100%	68 @ 0.1%	90 @ 1%	
CS(=O)(=O)c1ccc(-c2cnn(-c3ccc(F)c(F)c3)c(=O)c2-c2cccs2)cc1 [Example 237, 2-(3,4-Difluorophenyl)-4-(2-thienyl)-5-[4-(methylsulfonyl)phenyl]-3(2H)-pridazinone]		89 @ 0.1%		RHUCX1 % Inh. at Dose (μM) ([2]; 1 μM): 44 @ 1%; RHUCX1 % Inh. at Dose (μM) ([2]; 10 μM): 54 @ 10%
O=c1c(-c2ccc(F)cc2)c(-c2ccc(S(=O)(=O)C(F)(F)F)cc2)cnn1Cc1ccccc1 [Example 260, 2-Benzyl-4-(4-fluorophenyl)-5-[4-(trifluoromethylsulfonyl)phenyl]-3(2H)-pyridazinone]				inhibition at 10 µM ([1]; 10 μM, read-out: RHUCX2 % Inh. at Dose): 2%; inhibition at 100 µM [2, 3]: 8%
